This is an account of results in patent US10172830B2, “Pyrazolone compounds having human neutrophil elastase inhibitory properties” (CHIESI FARMACEUTICI S.P.A., priority 2016, dated 2019).

This experiment deals with T1, human neutrophil elastase (HNE) (Homo sapiens, UniProt P08246).
T1 construct: purchased Sigma E8140
T1 sequence (P08246 30-247 limits assumed): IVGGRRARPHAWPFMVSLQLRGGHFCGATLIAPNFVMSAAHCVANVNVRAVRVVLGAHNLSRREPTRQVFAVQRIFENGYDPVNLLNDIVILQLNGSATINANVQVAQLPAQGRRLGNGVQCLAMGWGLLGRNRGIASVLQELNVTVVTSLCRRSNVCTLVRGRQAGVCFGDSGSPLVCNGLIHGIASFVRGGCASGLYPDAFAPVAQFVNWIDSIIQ
The experiment in a line: HNE enzyme assay (human neutrophil elastase enzyme activity assay). Type of experiment: biochemical. To be noted: human leukocyte elastase 0.00072 U/mL; substrate MeOSuc-Ala-Ala-Pro-Val-AMC 100 μM; 25° C. for 30 minutes; at least two separate experiments; read-out: HNE inhibition (HNE enzyme inhibition, IC50 values). How it is done:
Compounds of the present invention were tested for potency in a human neutrophil elastase (HNE) enzyme activity assay.
Assays were performed in 96-well plates in a total assay volume of 100 μL. The final concentration of elastase enzyme (human leukocyte elastase, Sigma E8140) was 0.00072 U/mL. The peptide substrate (MeOSuc-Ala-Ala-Pro-Val-AMC, Calbiochem #324740) was used at a final concentration of 100 μM. The final concentration of DMSO was 1% in the assay buffer (0.05M Tris.HCl, 0.1M NaCl, 0.1M CaCl2, 0.0005% brij-35, pH 7.5). The enzymatic reaction was started by addition of the enzyme and incubated at 25° C. for 30 minutes. After incubation, the reaction was stopped by addition of soybean trypsin inhibitor (Sigma T9003) at a final concentration of 50 μg/well. Fluorescence was measured using a Molecular Devices fluorescence plate reader using 380 nm excitation and 460 nm emission wavelengths.
A dose response to each compound was performed and the effect of compound in each experiment was expressed as a percentage inhibition of the control enzyme fluorescence. Dose response curves were plotted and compound potency (IC50) was determined. Compounds were tested in at least two separate experiments.
One may read the IC50 as the point on the concentration scale where inhibition reaches its midpoint. Regarding `CCOC(=O)c1c(-c2ccnn2-c2ccc(C#N)cc2)n(CC)n(-c2cccc(C(F)(F)F)c2)c1=O` [Example 71, 2′-(4-Cyano-phenyl)-2-ethyl-5-oxo-1-(3-trifluoromethyl-phenyl)-2,5-dihydro-1H,2′H-[3,3′]bipyrazolyl-4-carboxylic acid ethyl ester], the IC50 is below 1 nM. In the case of `Cn1c(-c2ccnn2-c2ccc(C#N)cc2)c(C(=O)N[C@H]2CC[C@H](C(=O)NCC[N+](C)(C)C)CC2)c(=O)n1-c1cccc(C(F)(F)F)c1` [Example 42, {2-[(Trans-4-{[2′-(4-cyano-phenyl)-2-methyl-5-oxo-1-(3-trifluoromethyl-phenyl)-2,5-dihydro-1H,2′H-[3,3′]bipyrazolyl-4-carbonyl]-amino}-cyclohexanecarbonyl)-amino]-ethyl}-trimethyl-ammonium benzene sulphonate] it was below 1 nM; in that of `C[C@H](NC(=O)c1c(-c2ccnn2-c2ccc(C#N)cc2)n(C)n(-c2cccc(C(F)(F)F)c2)c1=O)C(=O)N1CC[N+](C)(C)CC1` [Example 26, 4-((S)-2-{[2′-(4-Cyano-phenyl)-2-methyl-5-oxo-1-(3-trifluoromethyl-phenyl)-2,5-dihydro-1H,2′H-[3,3′]bipyrazolyl-4-carbonyl]-amino}-propionyl)-1,1-dimethyl-piperazin-1-ium benzene sulphonate], below 1 nM; in that of `Cn1c(-c2ccnn2-c2ccc(C#N)cc2)c(C(=O)NC2CCN(C(=O)C3CC[N+](C)(C)CC3)CC2)c(=O)n1-c1cccc(C(F)(F)F)c1` [Example 39, 4-(4-{[2′-(4-Cyano-phenyl)-2-methyl-5-oxo-1-(3-trifluoromethyl-phenyl)-2,5-dihydro-1H,2′H-[3,3′]bipyrazolyl-4-carbonyl]-amino}-piperidine-1-carbonyl)-1,1-dimethyl-piperidinium benzene sulphonate], below 1 nM. As for `CN(C)CCOC(=O)[C@H]1CC[C@H](NC(=O)c2c(-c3ccnn3-c3ccc(C#N)cc3)n(C)n(-c3cccc(C(F)(F)F)c3)c2=O)CC1` [Example 15, Trans-4-{[2′-(4-cyano-phenyl)-2-methyl-5-oxo-1-(3-trifluoromethyl-phenyl)-2,5-dihydro-1H,2′H-[3,3′]bipyrazolyl-4-carbonyl]-amino}-cyclohexanecarboxylic acid 2-dimethylamino-ethyl ester], the IC50 is below 1 nM. For the compound `CN1CCC(OC(=O)[C@H]2CC[C@H](NC(=O)c3c(-c4ccnn4-c4ccc(C#N)cc4)n(C)n(-c4cccc(C(F)(F)F)c4)c3=O)CC2)CC1` [Example 13, Trans-4-{[2′-(4-cyano-phenyl)-2-methyl-5-oxo-1-(3-trifluoromethyl-phenyl)-2,5-dihydro-1H,2′H-[3,3′]bipyrazolyl-4-carbonyl]-amino}-cyclohexanecarboxylic acid 1-methyl-piperidin-4-yl ester], the concentration for half-maximal inhibition (IC50) was below 1 nM. For `C[C@H](NC(=O)c1c(-c2ccnn2-c2ccc(C#N)cc2)n(C)n(-c2cccc(C(F)(F)F)c2)c1=O)c1nnc(C[N+](C)(C)C)o1` [Example 37, [5-((S)-1-{[2′-(4-Cyano-phenyl)-2-methyl-5-oxo-1-(3-trifluoromethyl-phenyl)-2,5-dihydro-1H,2′H-[3,3′]bipyrazolyl-4-carbonyl]-amino}-ethyl)-[1,3,4]oxadiazol-2-ylmethyl]-trimethyl-ammonium benzene sulphonate] the value was below 1 nM; for `C[C@H](NC(=O)c1c(-c2ccnn2-c2ccc(C#N)cc2)n(C)n(-c2cccc(C(F)(F)F)c2)c1=O)c1ncc(CC[N+](C)(C)C)o1` [Example 52, {2-[2-((S)-1-{[2′-(4-Cyano-phenyl)-2-methyl-5-oxo-1-(3-trifluoromethyl-phenyl)-2,5-dihydro-1H,2′H-[3,3′]bipyrazolyl-4-carbonyl]-amino}-ethyl)-oxazol-5-yl]-ethyl}-trimethyl-ammonium benzene sulphonate], 1 to 10 nM; for `Cc1cc(C[N+]2(C)CCN(C(=O)[C@H](C)NC(=O)c3c(-c4ccnn4-c4ccc(C#N)cc4)n(C)n(-c4cccc(C(F)(F)F)c4)c3=O)CC2)no1` [Example 49, 4-((S)-2-{[2′-(4-Cyano-phenyl)-2-methyl-5-oxo-1-(3-trifluoromethyl-phenyl)-2,5-dihydro-1H,2′H-[3,3′]bipyrazolyl-4-carbonyl]-amino}-propionyl)-1-methyl-1-(5-methyl-isoxazol-3-ylmethyl)-piperazin-1-ium chloride], below 1 nM.

`CN1CCC(NC(=O)c2c(-c3ccnn3-c3ccc(C#N)cc3)n(C)n(-c3cccc(C(F)(F)F)c3)c2=O)CC1` [Example 2, 2′-(4-Cyano-phenyl)-2-methyl-5-oxo-1-(3-trifluoromethyl-phenyl)-2,5-dihydro-1H,2′H-[3,3′]bipyrazolyl-4-carboxylic acid (1-methyl-piperidin-4-yl)-amide]: the IC50 lay in the range of 1 to 10 nM. For `Cn1c(-c2ccnn2-c2ccc(C#N)cc2)c(C(=O)N[C@H]2C[C@H](c3ncc(C[N+](C)(C)C)o3)C2)c(=O)n1-c1cccc(C(F)(F)F)c1` [Example 68, [2-(Trans-3-{[2′-(4-cyano-phenyl)-2-methyl-5-oxo-1-(3-trifluoromethyl-phenyl)-2,5-dihydro-1H,2′H-[3,3′]bipyrazolyl-4-carbonyl]-amino}-cyclobutyl)-oxazol-5-ylmethyl]-trimethyl-ammonium benzene sulphonate], the IC50 is below 1 nM.

For the compound `Cn1c(-c2ccnn2-c2ccc(C#N)cc2)c(C(=O)N[C@H]2CC[C@H](C[N+](C)(C)C)CC2)c(=O)n1-c1cccc(C(F)(F)F)c1` [Example 24, (Trans-4-{[2′-(4-cyano-phenyl)-2-methyl-5-oxo-1-(3-trifluoromethyl-phenyl)-2,5-dihydro-1H,2′H-[3,3′]bipyrazolyl-4-carbonyl]-amino}-cyclohexylmethyl)-trimethyl-ammonium benzene sulphonate], the IC50 was below 1 nM. As for `Cn1c(-c2nccn2-c2ccc(C#N)cc2)c(C(=O)NC2CCCC2)c(=O)n1-c1cccc(C(F)(F)F)c1` [Example 72, 5-[1-(4-Cyano-phenyl)-1H-imidazol-2-yl]-1-methyl-3-oxo-2-(3-trifluoromethyl-phenyl)-2,3-dihydro-1H-pyrazole-4-carboxylic acid cyclopentyl-amide], the IC50 is below 1 nM. `Cn1c(-c2ccnn2-c2ccc(C#N)cc2)c(C(=O)N[C@H]2CC[C@H](C[n+]3ccccc3)CC2)c(=O)n1-c1cccc(C(F)(F)F)c1` [Example 69, 1-(4-{[2′-(4-Cyano-phenyl)-2-methyl-5-oxo-1-(3-trifluoromethyl-phenyl)-2,5-dihydro-1H,2′H-[3,3′]bipyrazolyl-4-carbonyl]-amino}-cyclohexylmethyl)-pyridinium bromide]: the concentration for half-maximal inhibition (IC50) was below 1 nM. `Cc1cc(C[N+](C)(C)CC(=O)N2CCC(NC(=O)c3c(-c4ccnn4-c4ccc(C#N)cc4)n(C)n(-c4cccc(C(F)(F)F)c4)c3=O)CC2)no1` [Example 50, [2-(4-{[2′-(4-Cyano-phenyl)-2-methyl-5-oxo-1-(3-trifluoromethyl-phenyl)-2,5-dihydro-1H,2′H-[3,3′]bipyrazolyl-4-carbonyl]-amino}-piperidin-1-yl)-2-oxo-ethyl]-dimethyl-(5-methyl-isoxazol-3-ylmethyl)-ammonium chloride]: the IC50 was below 1 nM. In the case of `Cn1c(-c2ccnn2-c2ccc(C#N)cc2)c(C(=O)N[C@H]2CC[C@H](CNC(=O)C[N+](C)(C)C)CC2)c(=O)n1-c1cccc(C(F)(F)F)c1` [Example 54, {[(Trans-4-{[2′-(4-cyano-phenyl)-2-methyl-5-oxo-1-(3-trifluoromethyl-phenyl)-2,5-dihydro-1H,2′H-[3,3′]bipyrazolyl-4-carbonyl]-amino}-cyclohexylmethyl)-carbamoyl]-methyl}-trimethyl-ammonium benzene sulphonate] it was below 1 nM; in that of `CN1CCC(CN(C)C(=O)C(C)(C)NC(=O)c2c(-c3ccnn3-c3ccc(C#N)cc3)n(C)n(-c3cccc(C(F)(F)F)c3)c2=O)CC1` [Example 9, 2′-(4-Cyano-phenyl)-2-methyl-5-oxo-1-(3-trifluoromethyl-phenyl)-2,5-dihydro-1H,2′H-[3,3′]bipyrazolyl-4-carboxylic acid {1-methyl-1-[methyl-(1-methyl-piperidin-4-ylmethyl)-carbamoyl]-ethyl}-amide], below 1 nM; in that of `CC(C)[C@H](NC(=O)c1c(-c2ccnn2-c2ccc(C#N)cc2)n(C)n(-c2cccc(C(F)(F)F)c2)c1=O)c1ncc(CN(C)C)o1` [Example 11, 2′-(4-Cyano-phenyl)-2-methyl-5-oxo-1-(3-trifluoromethyl-phenyl)-2,5-dihydro-1H,2′H-[3,3′]bipyrazolyl-4-carboxylic acid [(S)-1-(5-dimethylaminomethyl-oxazol-2-yl)-2-methyl-propyl]-amide], below 1 nM.
